Values belong to the molecule of their own block, whether it stands above or below them.
Experiments:
[1] = target: Mitogen-activated protein kinase kinase kinase kinase 5 (Homo sapiens) (UniProt Q9Y4K4); assay: Selectivity interaction (SelectScreen profiling (Invitrogen)) EUB0000607a MAP4K5; settings: at 2 µM
[2] = target: Sphingosine kinase 1 (Homo sapiens) (UniProt Q9NYA1); assay: Selectivity interaction (Kinase panel (Invitrogen)) EUB0000639a SPHK1; settings: at 200 nM
[3] = target: T1, Inhibitor of nuclear factor kappa-B kinase subunit beta (Homo sapiens) (UniProt O14920); assay: Selectivity interaction (ProQinase) EUB0000171b IKBKB
T1 sequence (whole entry): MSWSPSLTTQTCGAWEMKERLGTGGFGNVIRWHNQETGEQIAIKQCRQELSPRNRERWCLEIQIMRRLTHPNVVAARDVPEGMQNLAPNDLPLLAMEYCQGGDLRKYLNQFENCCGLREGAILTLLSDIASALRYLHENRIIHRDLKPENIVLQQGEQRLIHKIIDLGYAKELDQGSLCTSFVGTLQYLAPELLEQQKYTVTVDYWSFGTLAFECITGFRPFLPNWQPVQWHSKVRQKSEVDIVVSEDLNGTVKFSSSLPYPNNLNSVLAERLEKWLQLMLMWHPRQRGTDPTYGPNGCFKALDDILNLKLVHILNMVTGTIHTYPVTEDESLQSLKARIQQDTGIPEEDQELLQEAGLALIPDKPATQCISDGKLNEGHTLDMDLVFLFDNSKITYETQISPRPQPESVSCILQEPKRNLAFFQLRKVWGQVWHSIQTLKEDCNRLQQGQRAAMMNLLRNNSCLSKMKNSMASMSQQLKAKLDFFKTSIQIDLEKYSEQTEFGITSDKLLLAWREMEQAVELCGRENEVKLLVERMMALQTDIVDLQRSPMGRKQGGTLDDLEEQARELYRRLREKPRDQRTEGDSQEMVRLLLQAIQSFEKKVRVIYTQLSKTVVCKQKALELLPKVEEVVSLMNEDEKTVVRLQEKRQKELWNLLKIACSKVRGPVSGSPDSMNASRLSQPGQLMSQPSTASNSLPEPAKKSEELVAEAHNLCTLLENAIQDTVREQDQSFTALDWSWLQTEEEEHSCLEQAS

[4] = target: T2, Serine/threonine-protein kinase Nek10 (Homo sapiens) (UniProt Q6ZWH5); assay: Selectivity interaction (KinomeScan (DiscoverX)) EUB0000695a NEK10; settings: at 100 nM
T2 sequence (whole entry): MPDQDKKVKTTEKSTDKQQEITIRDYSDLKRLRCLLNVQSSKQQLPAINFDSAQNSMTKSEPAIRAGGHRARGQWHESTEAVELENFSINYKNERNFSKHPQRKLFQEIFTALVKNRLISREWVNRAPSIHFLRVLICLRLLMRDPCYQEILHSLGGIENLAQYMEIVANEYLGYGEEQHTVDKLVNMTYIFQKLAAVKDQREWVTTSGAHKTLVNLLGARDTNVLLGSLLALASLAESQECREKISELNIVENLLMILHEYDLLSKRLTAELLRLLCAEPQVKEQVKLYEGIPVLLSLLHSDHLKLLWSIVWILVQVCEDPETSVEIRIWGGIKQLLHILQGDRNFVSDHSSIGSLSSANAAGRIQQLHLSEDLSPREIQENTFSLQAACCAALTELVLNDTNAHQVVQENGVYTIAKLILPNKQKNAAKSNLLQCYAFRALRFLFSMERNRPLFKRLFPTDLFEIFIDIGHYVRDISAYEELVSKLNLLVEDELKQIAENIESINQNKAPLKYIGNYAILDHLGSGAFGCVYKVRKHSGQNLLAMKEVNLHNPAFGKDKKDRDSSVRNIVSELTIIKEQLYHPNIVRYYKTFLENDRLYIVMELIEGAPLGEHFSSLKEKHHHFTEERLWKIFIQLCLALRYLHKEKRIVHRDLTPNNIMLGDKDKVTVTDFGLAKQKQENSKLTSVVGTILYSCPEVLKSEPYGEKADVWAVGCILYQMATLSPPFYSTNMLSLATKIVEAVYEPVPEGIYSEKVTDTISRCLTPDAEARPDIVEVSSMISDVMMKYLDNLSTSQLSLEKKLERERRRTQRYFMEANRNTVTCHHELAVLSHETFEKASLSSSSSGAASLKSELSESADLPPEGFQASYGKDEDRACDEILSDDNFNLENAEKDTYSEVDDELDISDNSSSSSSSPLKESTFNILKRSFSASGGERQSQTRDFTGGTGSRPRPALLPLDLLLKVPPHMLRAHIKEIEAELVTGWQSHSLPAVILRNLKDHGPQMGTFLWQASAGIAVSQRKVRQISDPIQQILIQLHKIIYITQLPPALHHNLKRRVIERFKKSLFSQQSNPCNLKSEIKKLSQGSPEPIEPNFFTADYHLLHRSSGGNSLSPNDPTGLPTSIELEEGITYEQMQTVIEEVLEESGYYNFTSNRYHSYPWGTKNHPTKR

[5] = target: Vascular endothelial growth factor receptor 1 (Homo sapiens) (UniProt P17948); settings: at 10 µM
[6] = system: Epidermal growth factor receptor (Homo sapiens), P00533 [UNDEFINED MUTATION]; assay: Selectivity interaction (KinomeScan (DiscoverX)) EUB0001049a EGFR; settings: at 1 µM
[7] = target: DNA-dependent protein kinase catalytic subunit (Homo sapiens) (UniProt P78527); assay: Selectivity interaction (ActivX KiNativ screen (ex vivo kinase selectivity in human PBMCs)) EUB0001619a PRKDC; format: cell-based; settings: PBMC, at 1 µM
Sequence of DNA-dependent protein kinase catalytic subunit (Homo sapiens) (P78527 whole entry): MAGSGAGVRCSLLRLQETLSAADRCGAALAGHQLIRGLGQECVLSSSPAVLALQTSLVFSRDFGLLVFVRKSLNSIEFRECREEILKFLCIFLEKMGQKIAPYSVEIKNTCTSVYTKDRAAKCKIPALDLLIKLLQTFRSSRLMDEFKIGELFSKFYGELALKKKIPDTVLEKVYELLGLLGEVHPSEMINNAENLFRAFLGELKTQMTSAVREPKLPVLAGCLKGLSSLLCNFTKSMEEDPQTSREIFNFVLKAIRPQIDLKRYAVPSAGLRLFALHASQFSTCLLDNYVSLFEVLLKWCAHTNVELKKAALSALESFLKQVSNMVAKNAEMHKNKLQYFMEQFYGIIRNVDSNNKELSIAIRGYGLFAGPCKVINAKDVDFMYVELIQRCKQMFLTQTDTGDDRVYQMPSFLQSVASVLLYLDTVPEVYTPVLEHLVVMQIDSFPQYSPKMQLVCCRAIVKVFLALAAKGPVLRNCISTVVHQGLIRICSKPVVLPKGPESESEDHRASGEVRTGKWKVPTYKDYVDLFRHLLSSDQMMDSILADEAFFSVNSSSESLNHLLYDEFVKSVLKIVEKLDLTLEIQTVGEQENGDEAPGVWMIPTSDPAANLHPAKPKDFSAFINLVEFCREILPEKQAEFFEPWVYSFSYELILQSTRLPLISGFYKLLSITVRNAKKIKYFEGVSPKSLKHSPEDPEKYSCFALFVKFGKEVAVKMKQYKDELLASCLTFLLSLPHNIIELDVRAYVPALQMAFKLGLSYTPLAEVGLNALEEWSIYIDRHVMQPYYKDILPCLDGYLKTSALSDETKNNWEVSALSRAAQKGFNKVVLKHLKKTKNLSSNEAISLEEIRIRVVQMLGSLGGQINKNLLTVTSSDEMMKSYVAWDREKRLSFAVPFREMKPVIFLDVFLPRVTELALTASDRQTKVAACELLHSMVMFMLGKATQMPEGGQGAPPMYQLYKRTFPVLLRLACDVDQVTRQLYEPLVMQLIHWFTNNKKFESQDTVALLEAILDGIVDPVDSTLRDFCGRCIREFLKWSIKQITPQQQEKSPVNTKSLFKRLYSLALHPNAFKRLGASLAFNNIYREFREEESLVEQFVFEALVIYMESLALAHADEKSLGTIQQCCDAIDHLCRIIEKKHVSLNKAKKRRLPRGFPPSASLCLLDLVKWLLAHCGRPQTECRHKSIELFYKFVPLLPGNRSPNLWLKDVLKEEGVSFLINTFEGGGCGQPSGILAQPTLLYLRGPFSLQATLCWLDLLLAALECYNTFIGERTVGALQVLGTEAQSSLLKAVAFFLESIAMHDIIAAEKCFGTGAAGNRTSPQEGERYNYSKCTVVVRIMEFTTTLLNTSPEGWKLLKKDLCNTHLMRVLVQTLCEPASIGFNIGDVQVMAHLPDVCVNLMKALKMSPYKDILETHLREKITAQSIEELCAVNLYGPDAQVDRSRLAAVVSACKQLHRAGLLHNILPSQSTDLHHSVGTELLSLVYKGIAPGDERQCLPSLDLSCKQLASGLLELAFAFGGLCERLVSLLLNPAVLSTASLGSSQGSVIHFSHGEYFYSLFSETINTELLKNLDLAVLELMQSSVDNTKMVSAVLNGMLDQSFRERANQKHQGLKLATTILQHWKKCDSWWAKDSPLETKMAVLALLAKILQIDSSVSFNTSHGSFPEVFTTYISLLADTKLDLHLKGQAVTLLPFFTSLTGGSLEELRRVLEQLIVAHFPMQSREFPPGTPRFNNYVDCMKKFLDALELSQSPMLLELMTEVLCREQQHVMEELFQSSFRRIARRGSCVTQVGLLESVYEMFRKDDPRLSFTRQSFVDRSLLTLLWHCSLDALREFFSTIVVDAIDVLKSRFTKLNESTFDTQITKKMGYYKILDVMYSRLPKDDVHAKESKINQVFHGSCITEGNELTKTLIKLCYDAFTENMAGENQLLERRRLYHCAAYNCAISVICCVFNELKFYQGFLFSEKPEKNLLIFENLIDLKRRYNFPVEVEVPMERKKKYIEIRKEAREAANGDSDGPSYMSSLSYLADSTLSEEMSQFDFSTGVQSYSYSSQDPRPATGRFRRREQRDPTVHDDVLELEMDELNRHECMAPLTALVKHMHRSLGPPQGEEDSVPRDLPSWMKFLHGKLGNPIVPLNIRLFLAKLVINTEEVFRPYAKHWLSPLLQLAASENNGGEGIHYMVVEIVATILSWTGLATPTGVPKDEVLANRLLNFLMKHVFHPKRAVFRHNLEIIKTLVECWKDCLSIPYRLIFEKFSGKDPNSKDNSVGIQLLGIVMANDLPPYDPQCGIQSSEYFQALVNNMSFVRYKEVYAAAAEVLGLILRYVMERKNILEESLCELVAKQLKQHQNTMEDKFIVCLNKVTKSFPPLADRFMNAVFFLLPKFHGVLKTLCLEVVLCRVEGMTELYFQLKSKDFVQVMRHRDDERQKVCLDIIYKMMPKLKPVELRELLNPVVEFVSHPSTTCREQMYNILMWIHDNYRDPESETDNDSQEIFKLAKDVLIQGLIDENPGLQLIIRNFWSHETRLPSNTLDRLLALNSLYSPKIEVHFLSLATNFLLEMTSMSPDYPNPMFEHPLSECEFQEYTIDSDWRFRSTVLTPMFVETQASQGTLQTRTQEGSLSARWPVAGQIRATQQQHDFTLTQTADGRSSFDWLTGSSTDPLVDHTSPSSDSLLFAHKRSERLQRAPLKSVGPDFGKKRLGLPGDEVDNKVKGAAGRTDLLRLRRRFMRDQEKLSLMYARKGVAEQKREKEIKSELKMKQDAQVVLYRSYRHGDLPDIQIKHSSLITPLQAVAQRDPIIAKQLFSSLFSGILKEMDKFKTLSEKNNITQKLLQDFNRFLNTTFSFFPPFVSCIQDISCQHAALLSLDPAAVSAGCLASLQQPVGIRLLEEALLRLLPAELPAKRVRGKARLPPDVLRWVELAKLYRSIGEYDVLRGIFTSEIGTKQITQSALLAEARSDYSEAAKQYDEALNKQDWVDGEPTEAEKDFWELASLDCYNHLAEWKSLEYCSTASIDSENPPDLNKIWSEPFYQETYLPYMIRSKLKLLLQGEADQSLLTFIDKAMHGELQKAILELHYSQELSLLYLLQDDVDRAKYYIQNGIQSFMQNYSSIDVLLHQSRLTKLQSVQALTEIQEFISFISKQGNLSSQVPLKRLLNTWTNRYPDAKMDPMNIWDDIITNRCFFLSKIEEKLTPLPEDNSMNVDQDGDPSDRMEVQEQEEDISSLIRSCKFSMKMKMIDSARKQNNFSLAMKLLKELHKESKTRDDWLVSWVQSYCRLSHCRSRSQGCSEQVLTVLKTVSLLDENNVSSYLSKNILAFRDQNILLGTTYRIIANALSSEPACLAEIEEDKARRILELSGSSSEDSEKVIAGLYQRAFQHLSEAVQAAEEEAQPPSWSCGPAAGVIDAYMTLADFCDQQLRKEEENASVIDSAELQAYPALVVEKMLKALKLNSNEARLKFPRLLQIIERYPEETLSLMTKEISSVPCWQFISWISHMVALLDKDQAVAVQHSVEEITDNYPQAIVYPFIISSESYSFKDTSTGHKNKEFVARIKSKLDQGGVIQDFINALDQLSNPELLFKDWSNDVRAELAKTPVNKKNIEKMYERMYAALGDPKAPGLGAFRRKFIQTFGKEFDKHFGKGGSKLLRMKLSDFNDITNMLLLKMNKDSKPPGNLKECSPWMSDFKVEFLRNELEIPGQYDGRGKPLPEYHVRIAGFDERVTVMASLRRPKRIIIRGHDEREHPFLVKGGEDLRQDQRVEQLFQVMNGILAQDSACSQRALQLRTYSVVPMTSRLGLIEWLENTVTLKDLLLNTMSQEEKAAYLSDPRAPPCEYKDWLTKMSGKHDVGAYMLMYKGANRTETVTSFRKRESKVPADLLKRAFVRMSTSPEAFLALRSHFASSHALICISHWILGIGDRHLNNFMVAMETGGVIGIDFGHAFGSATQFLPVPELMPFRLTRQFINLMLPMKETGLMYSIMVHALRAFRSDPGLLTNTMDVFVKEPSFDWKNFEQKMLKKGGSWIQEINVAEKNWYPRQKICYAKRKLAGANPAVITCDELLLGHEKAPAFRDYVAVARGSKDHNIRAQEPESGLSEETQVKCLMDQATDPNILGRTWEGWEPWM

Sequence of Mitogen-activated protein kinase kinase kinase kinase 5 (Homo sapiens) (Q9Y4K4 whole entry, looked up): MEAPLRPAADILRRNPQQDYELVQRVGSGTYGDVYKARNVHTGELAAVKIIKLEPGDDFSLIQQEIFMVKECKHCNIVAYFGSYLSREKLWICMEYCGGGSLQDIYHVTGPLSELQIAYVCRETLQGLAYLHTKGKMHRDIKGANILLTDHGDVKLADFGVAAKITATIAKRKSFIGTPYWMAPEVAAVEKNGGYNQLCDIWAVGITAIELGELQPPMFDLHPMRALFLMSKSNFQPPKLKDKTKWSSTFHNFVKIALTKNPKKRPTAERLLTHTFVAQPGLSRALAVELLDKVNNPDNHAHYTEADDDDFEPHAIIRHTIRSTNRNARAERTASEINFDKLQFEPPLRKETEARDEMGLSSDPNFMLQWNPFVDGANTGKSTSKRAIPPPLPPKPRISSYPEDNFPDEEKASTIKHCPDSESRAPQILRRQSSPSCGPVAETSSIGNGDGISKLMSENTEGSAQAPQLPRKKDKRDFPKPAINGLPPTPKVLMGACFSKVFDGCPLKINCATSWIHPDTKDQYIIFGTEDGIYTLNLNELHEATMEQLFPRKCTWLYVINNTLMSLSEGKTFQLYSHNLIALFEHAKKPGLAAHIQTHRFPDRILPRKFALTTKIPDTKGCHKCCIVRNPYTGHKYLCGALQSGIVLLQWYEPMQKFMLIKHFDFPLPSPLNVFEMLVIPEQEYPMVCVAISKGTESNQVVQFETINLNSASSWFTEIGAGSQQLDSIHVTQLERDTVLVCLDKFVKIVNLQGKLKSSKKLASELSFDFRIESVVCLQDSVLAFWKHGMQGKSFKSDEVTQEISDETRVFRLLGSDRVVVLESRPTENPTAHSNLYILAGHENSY

Compound: CNC(=O)Nc1ccc(-c2nc(N3CC4CCC(C3)O4)c3cnn(C4CCC5(CC4)OCCO5)c3n2)cc1
% of inhibition [1]: 19%

% of inhibition [2]: 2.77%
Compound: CC[C@@H]1[C@H](F)C(=O)N[C@@H]1COc1nccc2cc(C(N)=O)c(OC)cc12 [ZIMLOVISERTIB]

% of control ([3]; at 1 µM): 77% | % of control ([3]; at 5 µM): 63%
Compound: C=CC(=O)Nc1cccc(C(=O)Nc2ccc(Nc3cc(-c4[nH]c(SC)nc4C)ccn3)cc2)c1

Compound: Cc1cc(F)c(C(=O)Nc2cccc(-c3nncn3C(C)C)n2)cc1-n1cnc(C2CC2)c1
% of control [4]: 84%

Compound: COCC(=O)NC/C=C/c1ccc2ncnc(Nc3ccc(Oc4ccc(C)nc4)c(C)c3)c2c1 [CP-724714]
% of control [5]: 88%

Compound: COc1cc(Nc2nc(C)cc(-c3cnn4nc(OC)ccc34)n2)cc(C(F)(F)F)c1
% of control [6]: 100%

Compound: N#Cc1cccc(-c2c[nH]c3ncnc(N4CCOCC4)c23)c1
% of inhibition [7]: 15%
